Laboratory results taken from patent publication US7294623B2, “Benzyl morpholine derivatives” (Eli Lilly and Company, priority 2002, dated 2007).
Counter-ions that a name gives are not always drawn.

Row | melting point [°C] | Compound
1 | 211 to 215 | CCOc1ccccc1S[C@H](c1cccc(F)c1)[C@H]1CNCCO1 (single isomer, unassigned) (as salt: hydrochloride) [Example 14]
2 | 233 to 234 | COc1ccccc1S[C@H](c1cccc(F)c1)[C@H]1CNCCO1 (single isomer, unassigned) (as salt: hydrochloride) [Example 13]
3 | 238 to 241 | COc1ccccc1S[C@H](c1ccc(Cl)cc1)[C@H]1CNCCO1 (single isomer, unassigned) (as salt: hydrochloride) [Example 12]
4 | 183 to 187 | Fc1cccc([C@@H](Sc2ccccc2Cl)[C@H]2CNCCO2)c1 (single isomer, unassigned) (as salt: hydrochloride) [Example 15]
